Test results reported in patent US12257237B2 (priority 2017, dated 2025).
Values joined by “and” are separate entries in the source; they are usually repeats but may differ in a detail not shown here. Equal values may be shown once.

Assay: Drug tolerability (body weight) in DD013 dedifferentiated liposarcoma xenograft model
Type: in vivo, Athymic nude mice
Set-up: key to Animal status: †: sacrificed moribund
Settings: for Mouse body weight: individual mice
Protocol: Experiments were performed with female Athymic nude mice, 9-10 weeks old obtained from Harlan Laboratories (Udine, Italy). They were maintained under Specific Pathogen Free conditions with constant temperature and humidity, according to the institutional guidelines.
Tumour growth mice was monitored two/three times a week (depending on tumour growth rate, to avoid unnecessary stress to the animals) by Vernier caliper. Mice were sacrificed when tumour reached a mean weight of 2±0.5 gr. The antitumour activity will be expressed as T/C %, where T and C were the mean tumour weight of treated and control groups, respectively. Mice were monitored daily and weighted at least two times a week. Tolerability was evaluated on the basis of body weight loss (BWL) and clinical observation.

[1] = EDO40 (40 mg/kg), day 23 from inoculum
[2] = EDO40 (40 mg/kg), day 26 from inoculum
[3] = EDO40 (40 mg/kg), day 33 from inoculum
[4] = EDO40 (40 mg/kg), day 36 from inoculum
[5] = EDO40 (40 mg/kg), day 40 from inoculum
[6] = EDO40 (40 mg/kg), day 43 from inoculum
[7] = EDO40 (40 mg/kg), day 50 from inoculum
[8] = EDO40 (40 mg/kg), day 54 from inoculum
[9] = EDO40 (40 mg/kg), day 58 from inoculum
[10] = EDO40 (40 mg/kg), day 62 from inoculum
[11] = EDO40 (40 mg/kg), day 65 from inoculum
[12] = EDO40 (40 mg/kg), day 69 from inoculum
[13] = EDO40 (40 mg/kg), day 72 from inoculum
[14] = EDO40 (40 mg/kg), day 75 from inoculum
[15] = EDO40 (40 mg/kg), day 79 from inoculum
[16] = EDO40 (40 mg/kg), day 83 from inoculum
[17] = EDO40 (40 mg/kg), day 87 from inoculum
[18] = EDO40 (40 mg/kg), day 90 from inoculum
[19] = EDO40 (40 mg/kg), day 94 from inoculum
[20] = EDO40 (40 mg/kg), day 98 from inoculum
[21] = EDO40 (40 mg/kg), day 100 from inoculum
[22] = EDO60 (60 mg/kg), day 23 from inoculum
[23] = EDO60 (60 mg/kg), day 26 from inoculum
[24] = EDO60 (60 mg/kg), day 29 from inoculum
[25] = EDO60 (60 mg/kg), day 33 from inoculum
[26] = EDO60 (60 mg/kg), day 36 from inoculum
[27] = EDO60 (60 mg/kg), day 40 from inoculum
[28] = EDO80 (80 mg/kg), day 23 from inoculum
[29] = EDO80 (80 mg/kg), day 26 from inoculum
[30] = EDO80 (80 mg/kg), day 29 from inoculum
[31] = EDO80 (80 mg/kg), day 33 from inoculum
[32] = EDO80 (80 mg/kg), day 36 from inoculum
[33] = EDO80 (80 mg/kg), day 40 from inoculum
[34] = EDO80 (80 mg/kg), day 43 from inoculum
[35] = EDO80 (80 mg/kg), day 47 from inoculum
[36] = EDO80 (80 mg/kg), day 50 from inoculum
[37] = EDO80 (80 mg/kg), day 54 from inoculum
[38] = EDO80 (80 mg/kg), day 58 from inoculum
[39] = EDO80 (80 mg/kg), day 62 from inoculum
[40] = EDO80 (80 mg/kg), day 65 from inoculum
[41] = EDO80 (80 mg/kg), day 69 from inoculum
[42] = EDO80 (80 mg/kg), day 72 from inoculum
[43] = EDO80 (80 mg/kg), day 75 from inoculum
[44] = EDO80 (80 mg/kg), day 79 from inoculum
[45] = EDO80 (80 mg/kg), day 83 from inoculum
[46] = EDO80 (80 mg/kg), day 87 from inoculum
[47] = EDO80 (80 mg/kg), day 90 from inoculum
[48] = EDO80 (80 mg/kg), day 94 from inoculum
[49] = EDO80 (80 mg/kg), day 98 from inoculum
[50] = EDO80 (80 mg/kg), day 100 from inoculum
[51] = EDO80 (80 mg/kg), day 103 from inoculum

With `Cn1c(CCCCCCC(=O)NO)nc2cc(N(CCCl)CCCl)ccc21` [EDO-S101, 7-(5-(bis(2-chloroethyl)amino)-1-methyl-1H-benzo[d]imidazol-2-yl)-N-hydroxyheptanamide] the “rapid BWL of one mouse (sacrificed)” value (80 mg/kg group, between day 75 and 79 from inoculum) was greater than 30%, the BWL % [1] was 0.0% and the “Mouse body weight, Mean” value [1] was 23.6 g. For the same compound, the BWL % [2] was −1.7%, the “Mouse body weight, Mean” value [2] was 23.2 g and the “Mouse body weight, Mean” value (EDO40 (40 mg/kg), day 29 from inoculum) was 24.7 g. For the same compound, the BWL % [3] was 2.4%, the “Mouse body weight, Mean” value [3] was 24.2 g and the BWL % [4] was 4.1%. The “Mouse body weight, Mean” value [4] was 24.6 g, the BWL % [5] was 6.1% and the “Mouse body weight, Mean” value [5] was 25.0 g. For the same compound, the BWL % [6] was 6.2%, the “Mouse body weight, Mean” value [6] was 25.1 g and the “Mouse body weight, Mean” value (EDO40 (40 mg/kg), day 47 from inoculum) was 26.0 g. The BWL % [7] was 11.7%, the “Mouse body weight, Mean” value [7] was 26.4 g and the BWL % [8] was 10.1%. For the same compound, the “Mouse body weight, Mean” value [8] was 26.0 g, the BWL % [9] was 8.3% and the “Mouse body weight, Mean” value [9] was 25.6 g. For the same compound, the BWL % [10] was 11.0%, the “Mouse body weight, Mean” value [10] was 26.2 g and the BWL % [11] was 9.1%. For the same compound, the “Mouse body weight, Mean” value [11] was 25.8 g, the BWL % [12] was 13.3% and the “Mouse body weight, Mean” value [12] was 26.8 g. The BWL % [13] was 13.3%, the “Mouse body weight, Mean” value [13] was 26.8 g and the BWL % [14] was 15.6%. For the same compound, the “Mouse body weight, Mean” value [14] was 27.3 g, the BWL % [15] was 13.8% and the “Mouse body weight, Mean” value [15] was 26.9 g. For the same compound, the BWL % [16] was 14.3%, the “Mouse body weight, Mean” value [16] was 27.0 g and the BWL % [17] was 14.4%. For the same compound, the “Mouse body weight, Mean” value [17] was 27.0 g, the BWL % [18] was 17.9% and the “Mouse body weight, Mean” value [18] was 27.8 g. For the same compound, the BWL % [19] was 16.0%, the “Mouse body weight, Mean” value [19] was 27.4 g and the BWL % [20] was 18.3%. The “Mouse body weight, Mean” value [20] was 27.9 g, the BWL % [21] was 15.7% and the “Mouse body weight, Mean” value [21] was 27.3 g. For the same compound, the BWL % [22] was 0.0%, the “Mouse body weight, Mean” value [22] was 23.3 g and the BWL % [23] was −4.5%. The “Mouse body weight, Mean” value [23] was 22.3 g, the BWL % [24] was 1.7% and the “Mouse body weight, Mean” value [24] was 23.7 g. For the same compound, the BWL % [25] was −0.8%, the “Mouse body weight, Mean” value [25] was 23.1 g and the BWL % [26] was 2.5%. For the same compound, the “Mouse body weight, Mean” value [26] was 23.9 g, the BWL % [27] was −0.6% and the “Mouse body weight, Mean” value [27] was 23.2 g. The “Mouse body weight, Mean” value (EDO60 (60 mg/kg), day 43 from inoculum) was 24.1 g, the “Mouse body weight, Mean” value (EDO60 (60 mg/kg), day 47 from inoculum) was 25.2 g and the “Mouse body weight, Mean” value (EDO60 (60 mg/kg), day 50 from inoculum) was 25.3 g. For the same compound, the “Mouse body weight, Mean” value (EDO60 (60 mg/kg), day 54 from inoculum) was 25.6 g, the “Mouse body weight, Mean” value (EDO60 (60 mg/kg), day 58 from inoculum) was 25.5 g and the “Mouse body weight, Mean” value (EDO60 (60 mg/kg), day 62 from inoculum) was 25.5 g. For the same compound, the “Mouse body weight, Mean” value (EDO60 (60 mg/kg), day 69 from inoculum) was 25.9 g, the “Mouse body weight, Mean” value (EDO60 (60 mg/kg), day 72 from inoculum) was 26.3 g and the “Mouse body weight, Mean” value (EDO60 (60 mg/kg), day 75 from inoculum) was 26.0 g. The “Mouse body weight, Mean” value (EDO60 (60 mg/kg), day 79 from inoculum) was 24.8 g, the “Mouse body weight, Mean” value (EDO60 (60 mg/kg), day 83 from inoculum) was 24.5 g and the “Mouse body weight, Mean” value (EDO60 (60 mg/kg), day 87 from inoculum) was 24.6 g. For the same compound, the “Mouse body weight, Mean” value (EDO60 (60 mg/kg), day 90 from inoculum) was 24.8 g, the “Mouse body weight, Mean” value (EDO60 (60 mg/kg), day 94 from inoculum) was 25.3 g and the “Mouse body weight, Mean” value (EDO60 (60 mg/kg), day 98 from inoculum) was 26.2 g. For the same compound, the “Mouse body weight, Mean” value (EDO60 (60 mg/kg), day 111 from inoculum) was 25.6 g, the “Mouse body weight, Mean” value (EDO60 (60 mg/kg), day 114 from inoculum) was 25.3 g and the “Mouse body weight, Mean” value (EDO60 (60 mg/kg), day 118 from inoculum) was 25.5 g. For the same compound, the BWL % [28] was 0.0%, the “Mouse body weight, Mean” value [28] was 24.2 g and the Mouse body weight [28] was 26.1 g and 25.7 g and 25 g and 23.1 g and 24 g and 26.2 g and 22.4 g and 22.3 g. For the same compound, the BWL % [29] was −3.4%, the “Mouse body weight, Mean” value [29] was 21.9 g and the Mouse body weight [29] was 23.4 g and 23.6 g and 22 g and 21.3 g and 20.9 g and 20.1 g and 22.4 g and 21.6 g and 21.9 g. For the same compound, the BWL % [30] was 4.2%, the “Mouse body weight, Mean” value [30] was 21.7 g and the Mouse body weight [30] was 22.7 g and 22.6 g and 21.5 g and 22.2 g and 21 g (3×) and 21.6 g (2×). For the same compound, the BWL % [31] was 1.3%, the “Mouse body weight, Mean” value [31] was 23.7 g and the Mouse body weight [31] was 25.1 g (2×) and 24 g and 23.1 g and 21.9 g and 22.5 g. For the same compound, the BWL % [32] was 5.9%, the “Mouse body weight, Mean” value [32] was 25.5 g and the Mouse body weight [32] was 27 g and 25.3 g and 24.7 g and 23.8 g and 26.3 g and 24.2 g and 24.6 g. For the same compound, the BWL % [33] was 2.5%, the Mouse body weight [33] was 28.6 g and 27 g and 25.7 g and 24.4 g (2×) and 27.9 g and 24 g and the BWL % [34] was 8.0%. The “Mouse body weight, Mean” value [34] was 25.8 g, the Mouse body weight [34] was 28.5 g and 26.5 g and 25 g (2×) and 26.9 g and 24.2 g and 24.4 g and the BWL % [35] was 5.9%. The “Mouse body weight, Mean” value [35] was 25.9 g, the Mouse body weight [35] was 27.9 g and 26.1 g and 24.6 g (2×) and 24.2 g and 27.4 g and 24.4 g and the BWL % [36] was 7.6%. The “Mouse body weight, Mean” value [36] was 25.8 g, the Mouse body weight [36] was 27.9 g and 26.8 g and 24.6 g and 24.4 g and 26.3 g and 23.2 g and 25.3 g and the BWL % [37] was 8.0%. For the same compound, the “Mouse body weight, Mean” value [37] was 26.2 g, the Mouse body weight [37] was 27.7 g and 26.7 g and 25.8 g and 25 g (2×) and 28 g and 24.8 g and the BWL % [38] was 12.2%. For the same compound, the “Mouse body weight, Mean” value [38] was 27.0 g, the Mouse body weight [38] was 28.7 g and 29.8 g and 28 g and 27.4 g and 26.9 g and 25 g (2×) and the BWL % [39] was 8.4%. The “Mouse body weight, Mean” value [39] was 23.5 g, the Mouse body weight [39] was 25.7 g and 24.4 g and 23.9 g and 24 g and 22.7 g and 21.9 g and 23.7 g and 23.8 g and 21.4 g and the BWL % [40] was 8.0%. The “Mouse body weight, Mean” value [40] was 23.9 g, the BWL % [41] was 6.3% and the “Mouse body weight, Mean” value [41] was 25.2 g. The Mouse body weight [41] was 28.7 g, the BWL % [42] was 9.7% and the “Mouse body weight, Mean” value [42] was 25.9 g. The Mouse body weight [42] was 30.7 g, the BWL % [43] was 13.9% and the “Mouse body weight, Mean” value [43] was 26.4 g. The Mouse body weight [43] was 30.6 g, the BWL % [44] was 8.8% and the “Mouse body weight, Mean” value [44] was 24.6 g. For the same compound, the Mouse body weight [44] was 28.7 g, the BWL % [45] was 7.6% and the “Mouse body weight, Mean” value [45] was 24.1 g. The Mouse body weight [45] was 24.1 g, the Animal status (EDO80 (80 mg/kg), day 83 from inoculum, mouse # 56) was “†” and the BWL % [46] was 5.0%. The “Mouse body weight, Mean” value [46] was 23.8 g, the Mouse body weight [46] was 25.3 g and the BWL % [47] was 2.9%. For the same compound, the “Mouse body weight, Mean” value [47] was 25.4 g, the Mouse body weight [47] was 29.2 g and the BWL % [48] was 0.0%. The “Mouse body weight, Mean” value [48] was 27.4 g, the BWL % [49] was 2.9% and the “Mouse body weight, Mean” value [49] was 28.0 g. For the same compound, the Mouse body weight [49] was 31.1 g, the BWL % [50] was 0.4% and the “Mouse body weight, Mean” value [50] was 27.5 g. For the same compound, the Mouse body weight [50] was 29.7 g, the BWL % [51] was −0.8% and the “Mouse body weight, Mean” value [51] was 27.3 g. The Mouse body weight [51] was 25.9 g and the BWL (all doses and schedules) was less than 5%.
